Assay results from patent US8741947B2, “Biologically active macrolides, compositions, and uses thereof” (The United States of America, as represented by the …, priority 2000, dated 2014).
Converted amounts (≈) assume the structure as drawn.

Columns and labels:
[1] = molecular target: Chromaffin Granule Membrane V-ATPase; experiment: V-ATPase inhibitory assay, chromaffin granule membrane; format: biochemical; details: Chromaffin Granule Membrane V-ATPase (bovine); read-out: V-ATPase (Ki, nM) CGM
Method: (§1) The V-ATPase inhibitory assays were performed on representative compound(s) of the present invention using non-mammalian or mammalian (e.g., bovine cromaffin granule) V-ATPases as described by Bowman et al., Proc. Natl. Acad. Sci. USA, 85, 7972-7976, 1988.

[2] = molecular target: Neurospora crassa vacuolar membrane V-ATPase; experiment: V-ATPase inhibitory assay, Neurospora crassa vacuolar membrane; format: biochemical; details: read-out: V-ATPase (Ki, nM) NCVM
Method: as §1

[3] = test system: leukemia (MOLT-4) human tumor cell line; experiment: 2-day in vitro cytotoxicity assay; format: cell-based; details: MOLT-4 leukemia cell line, 2-day in vitro assay
Method: (§2) A 2.0 mg solution of chondropsin A in pyridine-d5 was kept at room temperature and ^1H NMR spectra were periodically acquired. […] After 7 days, the pyridine was removed under reduced pressure and the residue was purified by HPLC as described above to give 0.6 mg of a compound that by FABMS, HPLC retention time, ^1H NMR, and HSQC data, was identical to chondropsin D. Thus, chondropsin D can be prepared from chondropsin A via a base-catalyzed transesterification reaction in which the ester migrates from O-34 to O-67. The characterization of chondropsin D was facilitated by spectral analysis of the product of the corresponding base-catalyzed transesterification reaction of the dimethyl ester of chondropsin A (FIG. 1A, compound (3)), which produced the dimethyl ester of chondropsin D (FIG. 1A, compound (9)). Chondropsin D was evaluated for cytotoxic activity towards melanoma (LOX) and leukemia (MOLT-4) human tumor cell lines in a 2-day in vitro assay, the procedure for which is described in Bokesch et al., J. Nat. Prod., 62, 633-635 (1999).

[4] = test system: melanoma (LOX) human tumor cell line; experiment: 2-day in vitro cytotoxicity assay; format: cell-based; details: 2-day in vitro assay
Method: as §2

| Compound | Ki [1] | Ki [2] | IC50 (cytotoxic activity) [3] | IC50 (cytotoxic activity) [4] |
| --- | --- | --- | --- | --- |
| CO/C1=C\C(C)=C\[C@@H](C)[C@@H](O)[C@@H](C)C/C(C)=C/C=C/[C@H](OC)[C@@H]([C@@H](C)[C@@H](O)[C@H](C)[C@@]2(O)C[C@@H](O)[C@H](C)[C@@H](C(C)C)O2)OC1=O [Bafilomycin A1, bafilomycin A1, reference compound] | 6 nM | 13 nM | – | – |
| COC(=O)C(C)(C)C(O)C(C)C(=O)C(C)(C)C=CC(=O)NC(CC(C)C)C(O)C(C)C=C(C)C(O)C(C)CCC(O)C(C)C(=O)NC(C(C)O)C1OC(=O)C(C(O)C(=O)O)NC(=O)C=CC=CCCC=CC=CCC2CC(C)CC(CC(O)C(C)C(O)C(C)=CC(C)C(O)C(C)=CCC(OC(=O)CC(O)C(=O)O)C1C)O2 (centres unmarked) [Chondropsin A, 73-deoxy, 73-deoxychondropsin A] | 3000 nM | 100 nM | – | – |
| COC(=O)C(C)(C)C(O)C(C)C(=O)C(C)(C)C=CC(=O)NC(C(O)C(C)C)C(O)C(C)C=C(C)C(O)C(C)CCC(O)C(C)C(=O)NC(C(C)O)C1OC(=O)C(C(O)C(=O)O)NC(=O)C=CC=CCCC=CC=CCC2CC(C)CC(CC(O)C(C)C(O)C(C)=CC(C)C(O)C(C)=CCC(OC(=O)CC(O)C(=O)O)C1C)O2 (centres unmarked) [Chondropsin A, chondropsin A] | > 10000 nM | 800 nM | – | – |
| COC(=O)C(O)CC(=O)OC1CC=C(C)C(O)C(C)C=C(C)C(O)C(C)C(O)CC2CC(C)CC(CC=CC=CCCC=CC=CC(=O)NC(C(O)C(=O)OC)C(=O)OC(C(NC(=O)C(C)C(O)CCC(C)C(O)C(C)=CC(C)C(O)C(NC(=O)C=CC(C)(C)C(=O)C(C)C(O)C(C)(C)C(=O)OC)C(O)C(C)C)C(C)O)C1C)O2 (centres unmarked) [Chondropsin A, dimethyl ester, chondropsin A dimethyl ester] | 500 nM | 50 nM | – | – |
| COC(=O)C(C)(C)C(O)C(C)C(=O)C(C)(C)C=CC(=O)NC(C(O)C(C)C)C(O)C(C)C=C(C)C(O)C(C)CCC(O)C(C)C(=O)NC(C(C)O)C1OC(=O)C(C(O)C(=O)O)NC(=O)C=CC=CCCC=CC=CCC2CC(C)CC(CC(O)C(C)C(O)C(C)=CC(C)C(O)C(C)=CCC(O)C1C)O2 (centres unmarked) [Chondropsin B, chondropsin B] | 6000 nM | 200 nM | – | – |
| CC1=CCC(OC(=O)CC(O)C(=O)O)C(C)C(C(NC(=O)C(C)C(O)CCC(C)C(O)C(C)=CC(C)C(O)C(CC(C)C)NC(=O)C=CC(C)(C)C(=O)C(C)C(O)C(C)C)C(C)O)OC(=O)C(C(O)C(=O)O)NC(=O)C=CC=CCCC=CC=CCC2CC(C)CC(CC(O)C(C)C(O)C(C)=CC(C)C1O)O2 (centres unmarked) [Chondropsin C, chondropsin C] | 3000 nM | 80 nM | – | – |
| COC(=O)C(C)(C)C(O)C(C)C(=O)C(C)(C)C=CC(=O)NC(C(O)C(C)C)C(O)C(C)C=C(C)C(O)C(C)CCC(O)C(C)C(=O)NC1C(C)OC(=O)C(C(O)C(=O)O)NC(=O)C=CC=CCCC=CC=CCC2CC(C)CC(CC(O)C(C)C(O)C(C)=CC(C)C(O)C(C)=CCC(OC(=O)CC(O)C(=O)O)C(C)C1O)O2 (centres unmarked) [Chondropsin D, chondropsin D] | > 10000 nM | 140 nM | ~250 ng/mL (≈ 0.157 µM) | approximately 10 ng/mL |
| C/C=C/[C@H]1O[C@@](O)([C@@H](C)[C@H](O)[C@H](C)[C@H]2OC(=O)/C(OC)=C/C(C)=C/[C@@H](C)[C@@H](O)[C@@H](CC)[C@@H](O)[C@H](C)C/C(C)=C/C=C/[C@@H]2OC)C[C@@H](O[C@H]2C[C@@H](O)[C@H](OC(N)=O)[C@@H](C)O2)[C@@H]1C [Concanamycin A, concanamycin A, reference compound] | 6 nM | 4 nM | – | – |
| CC/C=C\C=C/C(=O)N/C=C/C[C@H]1C[C@@H](O)[C@@H](C)C/C=C/Cc2cccc(O)c2C(=O)O1 [Salicylihalamide A, salicylihalamide A, reference compound] | 6.5 nM | > 10000 nM | – | – |
